“Also recorded” adds a separate entry of the source.
Assays:
[1] = tested on: ovariectomized white mice; assay: Preventive effect 1 on osteoporosis: tibia histology, oral administration after ovariectomy; format: in vivo; conditions: 10 mg/day, four weeks from ovariectomy, versus untreated control
Method: In order to evaluate effects of the compound of the present invention on treatment and prevention of osteoporosis, female white mice with osteoporosis induced by ovariectomy were used as a disease model. After ovariectomy, mice were administered with the compound of the present invention. Tibias were dissected from the mice, and observed histologically.
After anesthetizing female white mice with 100 mg/kg of Ketamine (Ketara) and 0.15 ml/kg of 2% Xylazine (Rompun), the lumbar dorsum is shaved bilaterally and the exposed skin was prepared for aseptic surgery by a 10% povidone-iodine scrub followed by a 70% alcohol wipe.
A 1-cm incision was made in the central region of the abdomen, and the ovary was identified along with the uterus with caution not to damage the main organs such as the liver and diaphragm. After ligating the uterus with a thread for suturing, the exposed ovary was severed toward both sides and removed. Thereafter, each organ was relocated to its original position, and the incision was closed with a thread for suturing in an interrupted pattern. […]
The daily dosage of the Compound 1 per female white mouse was determined based on 250 g body weight. […] With caution not to exchange the water bottles between the groups, everyday, the number of mice was recorded, and the mixture was prepared based on the number of mice. […]

[2] = tested on: ALP activity in HOS cells; assay: Alkaline phosphatase (osteoblast marker enzyme) activity in HOS cells; format: cell-based, human; conditions: concentration not given
From the text: (§1) In the following tests, three kinds of cell lines were used. The human osteosarcoma cell lines, MG-63 (ATCC No. CRL-1427) and HOS (ATCC No. CRL-1543), and mouse muscle C2C12 muscle cells (ATCC No. CRL-1772) were purchased from ATCC (American Type Culture Collection, Rockville, USA), and cultured in Dulbecco's modified Eagle's medium (DMEM) supplemented with 10% fetal bovine serum (FBS).
To examine whether the Compound 1 affects positively or negatively osteoblast activity, alkaline phosphatase (ALP) activity was measured. HOS cells were aliquotted onto a 96-well microplate at a density of 5×10^3 cells per well, and cultured. When forming a monolayer, the cells were treated with the naturally extracted compound (Compound 1) at prescribed concentrations. After incubation in 10% FBS-containing DMEM for 48 hrs, the cells were treated with 0.1% Triton X-100/saline for 30 min at 37° C. A portion of each cell lysate was reacted with 0.1 N glycine-NaCh buffer (pH 10.4) for 30 min at 37° C. in the presence of 100 mM nitrophenyl phosphate (PNPP) as a substrate of alkaline phosphate. The amount of PNP (ρ-nitrophenol) released from the substrate PNPP was determined by measuring absorbance at 405 nm. Protein amount was determined by a modified Lowry method, and enzyme activity was designated as nmol substrate cleaved/h/mg protein.

MG-63 osteoblasts = assay: Proliferation of MG-63 osteoblasts (3H-thymidine incorporation); format: cell-based, human; conditions: concentration not given
From the text: as §1
In order to indirectly evaluate cytotoxicity of the Compound 1 and investigate effect of the Compound 1 naturally extracted on obsteoblast proliferation, proliferation of MG-63 osteoblasts was investigated by measuring the amount of ^3H-thymidine incorporated into cellular DNA upon DNA replication. The cells were aliquotted onto 24-well plates at a density of 2×10^4 cells per well. The next day, after exchanging culture medium to medium containing 1% FBS, the cells were treated with the compound 1 serially diluted at various concentrations and further cultured for 48 hrs. Four hours before finishing the culture of 48 hrs, ^3H-thymidine was added to the medium in an amount of 3 μCi per well. The cells were washed with phosphate buffer, and treated with 5% trichloroacetic acid (TCA) pre-cooled on ice. Each of the separated TCA-insoluble fractions was dissolved in 0.1 M NaOH. With a portion of each fraction, ^3H-thymidine uptake by the cells was measured using a liquid scintillation counter.

[3] = listed as compound prepared in Example 1

O=Cc1ccc(CO)o1 [Compound 1, 5-hydroxymethylfuran-2-carboxyaldehyde]
Trabecular and cortical bone of tibia, light microscopy [1]: trabecular bone loss was not observed; also recorded: marked increase in the cortical and trabecualr bone; also recorded: no trabecular bone loss
Alkaline phosphatase activity compared to control [2]: about 121%
Alkaline phosphatase activity compared to control [2, 3]: 120%
Proliferation rate of osteoblasts compared to control (MG-63 osteoblasts): over 105%
Proliferation rate of osteoblasts compared to control (MG-63 osteoblasts; [3]): ≥ 105%
